Patent US10392354B2, “Highly selective anti-cancer agents targeting non-small cell lung cancer and other forms of cancer” (The University of Toledo, priority 2013, dated 2019)

Tests used:
Type in all cases: cell-based
[1] = system: NCI-H522 cells; assay: lethality / cell viability of NCI-H522 cells; settings: for lethality / activity on NCI-H522 cell line: concentration not given
Description: FIGS. 5A-5C: The effect of compound 1f on NCI-H522 cells at 10 μM. […] Interval between images shown is 1 hour.
FIGS. 5A-5C show the effects of 1f on NCI-H522 cells at 10 μM.
The effects of compound 2 on NCI-H522 cells, other cancer cells, and normal cell lines were evaluated. […] FIGS. 3A-3C show the effects of compound 2 on tubulin and mitochondrial function.

[2] = system: tubulin; assay: cell staining with antibodies to tubulin in NCI-H522 cells; settings: in interphase or mitosis
Description: (§1) FIGS. 3A-3C: The effect of compound 2 (10 μM) on tubulin and mitochondrial function. […] Arrowheads: two cells that have lost mitochondrial membrane potential; phase contrast indicates these are dead cells.
(§2) The effects of compound 2 on NCI-H522 cells, other cancer cells, and normal cell lines were evaluated. Compound 2 killed NCI-H522 cells at 10 μM. […] FIGS. 3A-3C show the effects of compound 2 on tubulin and mitochondrial function.

[3] = system: mitochondrial potential; assay: TMRE staining of mitochondrial membrane potential in NCI-H522 cells; settings: during the death process
Description: as §1, §2

Row | SMILES | lethality / activity on NCI-H522 cell line [1] | cell killing of NCI-H522 cells ([1]; 10 μM) | effects on tubulin [2] | mitochondrial membrane potentials [3]
1 | C#Cc1nc(C2=C(C)C(=O)C(Cc3ccccc3)C2)cs1 (centres unmarked) [Compound 4, 5-benzyl-3-(2-ethynylthiazol-4-yl)-2-methylcyclopent-2-enone] | did not compromise | – | – | –
2 | C#Cc1nc(C2=C(C)C(=O)CC2)cs1 [Compound 3, 3-(2-ethynylthiazol-4-yl)-2-methylcyclopent-2-enone] | lethal | – | – | –
3 | C#Cc1nc(C2=C(C)[C@@H](O)CC2)cs1 [Compound 2] | – | killed | no overt effects | intact until late in the death process
